Laboratory results reported in PubChem BioAssay AID256 (DTP/NCI, 2004).
Where “and” joins values, the source holds several entries; their conditions need not be identical. Identical values can stand only once. Toxic doses and inconclusive results are not listed.

System: CD2F1 mice, L1210 leukemia ip, survival T/C
Assay: NCI In Vivo Anticancer Drug Screen. Data for tumor model L1210 Leukemia (intraperitoneal) in CD2F1 (CDF1) mice
Conditions: higher = longer survival
Method in brief: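 Ratio T/C, where T is the treated-group value and C the vehicle-dosed control value, from mice implanted with a transplantable tumor.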

[1] = endpoint: mean survival time, dose: 100.0 mg/kg/injection, schedule: Q04DX003 (ip), vehicle: saline
[2] = endpoint: mean survival time, dose: 200.0 mg/kg/injection, schedule: Q04DX003 (ip), vehicle: saline
[3] = endpoint: mean survival time, dose: 50.0 mg/kg/injection, schedule: Q01DX009 (ip), vehicle: saline
[4] = endpoint: mean survival time, dose: 100.0 mg/kg/injection, schedule: Q01DX009 (ip), vehicle: saline
[5] = endpoint: mean survival time, dose: 100.0 mg/kg/injection, schedule: Q04DX003 (ip), vehicle: saline with Tween-80
[6] = endpoint: mean survival time, dose: 200.0 mg/kg/injection, schedule: Q04DX003 (ip), vehicle: saline with Tween-80
[7] = endpoint: mean survival time, dose: 50.0 mg/kg/injection, schedule: Q01DX009 (ip), vehicle: Klucel (hydroxypropylcellulose) (HPC)
[8] = endpoint: mean survival time, dose: 100.0 mg/kg/injection, schedule: Q01DX009 (ip), vehicle: Klucel (hydroxypropylcellulose) (HPC)
[9] = endpoint: mean survival time, dose: 200.0 mg/kg/injection, schedule: Q01DX009 (ip), vehicle: Klucel (hydroxypropylcellulose) (HPC)
[10] = endpoint: mean survival time, dose: 50.0 mg/kg/injection, schedule: Q01DX009 (ip), vehicle: saline with Tween-80
[11] = endpoint: mean survival time, dose: 100.0 mg/kg/injection, schedule: Q01DX009 (ip), vehicle: saline with Tween-80
[12] = endpoint: mean survival time, dose: 200.0 mg/kg/injection, schedule: Q01DX009 (ip), vehicle: saline with Tween-80
[13] = endpoint: mean survival time, dose: 400.0 mg/kg/injection, schedule: Q01DX009 (ip), vehicle: saline with Tween-80
[14] = endpoint: mean survival time, dose: 100.0 mg/kg/injection, schedule: Q01DX001 (ip), vehicle: saline with Tween-80
[15] = endpoint: mean survival time, dose: 200.0 mg/kg/injection, schedule: Q01DX001 (ip), vehicle: saline with Tween-80
[16] = endpoint: mean survival time, dose: 25.0 mg/kg/injection, schedule: Q01DX009 (ip), vehicle: saline with Tween-80

## CCOC(=O)C(CC)(OC(C)=O)C(=O)C[n+]1ccccc1 (configuration not stated)
endpoint: mean survival time, dose: 100.0 mg/kg/injection, schedule: Q01DX001 (ip), vehicle: saline
  T/C: 108 % of control
[1]
  T/C: 101 % of control
endpoint: mean survival time, dose: 200.0 mg/kg/injection, schedule: Q01DX001 (ip), vehicle: saline
  T/C: 106 % of control
[2]
  T/C: 101 % of control
endpoint: mean survival time, dose: 400.0 mg/kg/injection, schedule: Q01DX001 (ip), vehicle: saline
  T/C: 106 % of control
endpoint: mean survival time, dose: 400.0 mg/kg/injection, schedule: Q04DX003 (ip), vehicle: saline
  T/C: 101 % of control

## CN1CCC(CO)C1 (configuration not stated)
endpoint: mean survival time, dose: 25.0 mg/kg/injection, schedule: Q01DX009 (ip), vehicle: water
  T/C: 91 % of control
[3]
  T/C: 109 % of control
endpoint: mean survival time, dose: 50.0 mg/kg/injection, schedule: Q01DX009 (ip), vehicle: water
  T/C: 87 % of control
[4]
  T/C: 101 % of control
endpoint: mean survival time, dose: 100.0 mg/kg/injection, schedule: Q01DX009 (ip), vehicle: water
  T/C: 87 % of control
[1]
  T/C: 96 % of control
endpoint: mean survival time, dose: 200.0 mg/kg/injection, schedule: Q01DX009 (ip), vehicle: saline
  T/C: 101 % of control
endpoint: mean survival time, dose: 200.0 mg/kg/injection, schedule: Q01DX009 (ip), vehicle: water
  T/C: 89 % of control
[2]
  T/C: 97 % of control

## CC(C)=CC(C)OC(=O)N(C)C (configuration not stated)
[5]
  T/C: 97 % of control
[6]
  T/C: 94 % of control

## O=C(O)CC12CCCCC1CCCC2 (configuration not stated)
endpoint: mean survival time, dose: 100.0 mg/kg/injection, schedule: Q04DX003 (ip), vehicle: acetone
  T/C: 95 % of control
endpoint: mean survival time, dose: 200.0 mg/kg/injection, schedule: Q04DX003 (ip), vehicle: acetone
  T/C: 91 % of control
endpoint: mean survival time, dose: 400.0 mg/kg/injection, schedule: Q04DX003 (ip), vehicle: acetone
  T/C: 90 % of control

## Cc1cc(C)c(C(=O)CCCC(=O)O)c(C)c1
[5]
  T/C: 94 % of control
[6]
  T/C: 92 % of control

## N#CC(c1ccc([N+](=O)[O-])cc1)C(CC(=O)c1ccccc1)c1ccccc1 (configuration not stated)
[7]
  T/C: 96 % of control
[8]
  T/C: 101 % of control
[9]
  T/C: 93 % of control

## CC1(C)OCC2OC3(C(=O)O)OC(C)(C)OC3C2O1 (configuration not stated)
endpoint: mean survival time, dose: 50.0 mg/kg/injection, schedule: Q01DX005 (ip), vehicle: saline with Tween-80
  T/C: 88 % of control
[10]
  T/C: 98 % of control
endpoint: mean survival time, dose: 50.0 mg/kg/injection, schedule: Q04DX002 (ip), vehicle: saline with Tween-80
  T/C: 108 % of control
endpoint: mean survival time, dose: 100.0 mg/kg/injection, schedule: Q01DX005 (ip), vehicle: saline with Tween-80
  T/C: 88 % of control
[11]
  T/C: 95 % of control
endpoint: mean survival time, dose: 100.0 mg/kg/injection, schedule: Q04DX002 (ip), vehicle: saline with Tween-80
  T/C: 97 % of control
endpoint: mean survival time, dose: 200.0 mg/kg/injection, schedule: Q01DX005 (ip), vehicle: saline with Tween-80
  T/C: 92 % of control
[12]
  T/C: 92 % of control
endpoint: mean survival time, dose: 200.0 mg/kg/injection, schedule: Q04DX002 (ip), vehicle: saline with Tween-80
  T/C: 93 % of control
endpoint: mean survival time, dose: 400.0 mg/kg/injection, schedule: Q01DX005 (ip), vehicle: saline with Tween-80
  T/C: 88 % of control
[13]
  T/C: 88 % of control
endpoint: mean survival time, dose: 400.0 mg/kg/injection, schedule: Q04DX002 (ip), vehicle: saline with Tween-80
  T/C: 86 % of control

## CCCCNC1=C(C)C(=O)C2=C(C1=O)C(COC(N)=O)C1(OC)C3NC3CN21 (configuration not stated)
endpoint: mean survival time, dose: 6.3 mg/kg/injection, schedule: Q01DX001 (ip), vehicle: carboxymethylcellulose (CMC)
  T/C: 102 % of control
endpoint: mean survival time, dose: 9.5 mg/kg/injection, schedule: Q01DX001 (ip), vehicle: carboxymethylcellulose (CMC)
  T/C: 118 % of control
endpoint: mean survival time, dose: 14.25 mg/kg/injection, schedule: Q01DX001 (ip), vehicle: carboxymethylcellulose (CMC)
  T/C: 102 % of control

## CCN(CC)Cc1ccccn1
endpoint: mean survival time, dose: 25.0 mg/kg/injection, schedule: Q01DX009 (ip), vehicle: saline
  T/C: 94 % of control
[3]
  T/C: 97 % of control
[4]
  T/C: 92 % of control
[1]
  T/C: 95 % of control

## CC(C)(CC(=O)O)c1ccccc1
endpoint: mean survival time, dose: 100.0 mg/kg/injection, schedule: Q04DX003 (ip), vehicle: saline sonified
  T/C: 97 % of control
endpoint: mean survival time, dose: 200.0 mg/kg/injection, schedule: Q04DX003 (ip), vehicle: saline sonified
  T/C: 101 % of control
endpoint: mean survival time, dose: 400.0 mg/kg/injection, schedule: Q04DX003 (ip), vehicle: saline sonified
  T/C: 97 % of control

## O=C1OC(=O)C2C3C=CC(C4C=CC43)C12 (configuration not stated)
[10]
  T/C: 102 % of control
[14]
  T/C: 101 % of control
[11]
  T/C: 102 % of control
[15]
  T/C: 98 % of control
[12]
  T/C: 97 % of control

## C[n+]1c(-c2ccc(NC(=O)c3ccc(C(=O)Nc4ccc(-c5cn6ccccc6[n+]5C)cc4)cc3)cc2)cn2ccccc21
endpoint: median survival time, dose: 5.4 mg/kg/injection, schedule: Q01DX005 (ip), vehicle: saline with Tween-80
  T/C: 200 % of control
endpoint: median survival time, dose: 6.25 mg/kg/injection, schedule: Q01DX005 (ip), vehicle: saline with Tween-80
  T/C: 168 % of control
endpoint: median survival time, dose: 9.0 mg/kg/injection, schedule: Q01DX005 (ip), vehicle: saline with Tween-80
  T/C: 211 % of control
endpoint: median survival time, dose: 12.5 mg/kg/injection, schedule: Q01DX005 (ip), vehicle: saline with Tween-80
  T/C: 200 % of control
endpoint: median survival time, dose: 15.0 mg/kg/injection, schedule: Q01DX005 (ip), vehicle: saline with Tween-80
  T/C: 352 % of control
endpoint: median survival time, dose: 25.0 mg/kg/injection, schedule: Q01DX005 (ip), vehicle: saline with Tween-80
  T/C: 312 % of control and 341 % of control
endpoint: median survival time, dose: 42.0 mg/kg/injection, schedule: Q01DX005 (ip), vehicle: saline with Tween-80
  T/C: 152 % of control
endpoint: median survival time, dose: 100.0 mg/kg/injection, schedule: Q01DX005 (ip), vehicle: saline with Tween-80
  T/C: 86 % of control
endpoint: median survival time, dose: 116.0 mg/kg/injection, schedule: Q01DX005 (ip), vehicle: saline with Tween-80
  T/C: 109 % of control

## OCCN=Cc1c[nH]c2ccccc12
[14]
  T/C: 95 % of control
[15]
  T/C: 106 % of control
endpoint: mean survival time, dose: 400.0 mg/kg/injection, schedule: Q01DX001 (ip), vehicle: saline with Tween-80
  T/C: 103 % of control

## [Cl][Pt+2]([Cl])([Cl])[Cl].[NH-]Cc1ccccc1C[NH-]
endpoint: mean survival time, dose: 5.0 mg/kg/injection, schedule: Q04DX003 (ip), vehicle: saline with Tween-80
  T/C: 110 % of control
endpoint: mean survival time, dose: 10.0 mg/kg/injection, schedule: Q04DX003 (ip), vehicle: saline with Tween-80
  T/C: 118 % of control
endpoint: mean survival time, dose: 20.0 mg/kg/injection, schedule: Q04DX003 (ip), vehicle: saline with Tween-80
  T/C: 120 % of control
endpoint: mean survival time, dose: 40.0 mg/kg/injection, schedule: Q04DX003 (ip), vehicle: saline with Tween-80
  T/C: 86 % of control

## O=c1oc(-c2ccccc2)nc2cc(Cl)ccc12
[16]
  T/C: 105 % of control
[10]
  T/C: 100 % of control
[11]
  T/C: 105 % of control

## O=[N+]([O-])c1ccc(O)c(C[P+](c2ccccc2)(c2ccccc2)c2ccccc2)c1
[11]
  T/C: 93 % of control
[12]
  T/C: 95 % of control
[13]
  T/C: 102 % of control

## Cc1cc2cc3n(c2nn1)N=C(Cl)CC3
endpoint: mean survival time, dose: 61.87 mg/kg/injection, schedule: Q04DX002 (ip), vehicle: Klucel (hydroxypropylcellulose) (HPC)
  T/C: 103 % of control
endpoint: mean survival time, dose: 100.0 mg/kg/injection, schedule: Q04DX002 (ip), vehicle: Klucel (hydroxypropylcellulose) (HPC)
  T/C: 101 % of control
endpoint: mean survival time, dose: 123.75 mg/kg/injection, schedule: Q04DX002 (ip), vehicle: Klucel (hydroxypropylcellulose) (HPC)
  T/C: 105 % of control
endpoint: mean survival time, dose: 200.0 mg/kg/injection, schedule: Q04DX002 (ip), vehicle: Klucel (hydroxypropylcellulose) (HPC)
  T/C: 103 % of control
endpoint: mean survival time, dose: 247.5 mg/kg/injection, schedule: Q04DX002 (ip), vehicle: Klucel (hydroxypropylcellulose) (HPC)
  T/C: 109 % of control

## COc1ccc(-c2c(O)c3ccc(OC)cc3oc2=O)cc1
[16]
  T/C: 96 % of control
[10]
  T/C: 108 % of control
[11]
  T/C: 108 % of control

## COC(=O)/C(=N\NS(=O)(=O)c1ccc(C)cc1)c1ccccc1
endpoint: mean survival time, dose: 25.0 mg/kg/injection, schedule: Q01DX009 (ip), vehicle: Klucel (hydroxypropylcellulose) (HPC)
  T/C: 100 % of control
[7]
  T/C: 102 % of control
[8]
  T/C: 102 % of control
[9]
  T/C: 91 % of control
endpoint: mean survival time, dose: 400.0 mg/kg/injection, schedule: Q01DX009 (ip), vehicle: Klucel (hydroxypropylcellulose) (HPC)
  T/C: 91 % of control
